Assay results as given in US8436021B2, “Pharmaceutical composition for treating and/or preventing a pathology associated with an obsessional behavior or with obesity” (priority 2002, dated 2013).

What was measured:
Format in all cases: in vivo, mouse
[1] = system: 5-HT4 receptor; experiment: Constraint stress (forced immobilization 110 min): ingestion of food and weight; conditions: RS 39604 1 mg/kg, not shown
Experimental: Each of the tests was divided into three phases: A period of habituation (7 days), the day of the constraint stress (immobilization for 110 min) and a recovery stage (10 days). The mice were divided into a control group and a constraint group. On the stress day the wild mice disabled for the gene coding for the 5-HT4 receptor received an injection of NaCl […], 1 mg/kg of RS 39604, antagonist of the 5-HT4 receptor. […] Ingestion of food was then measured 2 h 30 min, 3 and 5 h and each day during the recovery period.

[2] = system: 5-HT4 receptor; experiment: Ingestion of food after 24 h food deprivation and i.p. drug injection (protocol of Lucas et al., 1998); conditions: for diminution of ingestion of food vs NaCl-treated mice of same genotype / effect on ingestion of food vs NaCl-treated mice of same genotype: MDMA 10 mg/kg, RS 39604 0.5 mg/kg i.p.; for effect on ingestion of food vs NaCl-treated mice of same genotype: 3 h after administration
Experimental: Each drug used to treat the wild mice disabled for the gene coding for the 5-HT4 receptor was diluted extemporaneously in a saline solution of NaCl (0.9%) and injected in a systemic manner (i.p.). The injection volume of each treatment was 200 μL for 30 g. The wild mice or those disabled for the 5-HT4 receptor (n=35) received the following treatments: NaCl, MDMA (or ecstasy or 3,4-N-methylene dioxymethamphetamine, SIGMA, 10 mg/kg), RS 39604, […]/MDMA.
(§1) The MDMA (10 mg/kg, Sigma, user license 9900431 S, V. Compan) and RS 39604 (0.5 mg/kg), antagonist of the 5-HT4 receptor, were administered by themselves or in a combined treatment to the wild mice or those deprived of the 5-HT4 receptor (n=12-17 by genotype and pharmacological products).
Ingestion of food by the wild mice and the mice disabled for the gene coding for the 5-HT4 receptor was evaluated in accordance with the test protocol described by Lucas et al., 1998. The different mice were isolated for a habituation period of three days in the presence of food and water supplied ad libitum during which the weights of the mice and of the food consumed were measured daily at the same hour. On the fourth day the mice were deprived of their food for 24 hours. The drugs were injected such as NaCl after the food deprivation period to determine the effect of the different treatments on ingestion of food. Food was reintroduced into each cage after an interval of 10 min for the other treatments. Three successive weighings of the food were then carried out 30 min, 1 h and 3 h after the reintroduction of the food.

[3] = system: 5-HT4 receptor; experiment: Taking of food in mice nourished ad libitum (dose selection for RS 39604); conditions: 0.5 mg/kg, not illustrated
Experimental: as §1

[4] = system: leptine; experiment: Plasma leptine rates after administration of NaCl or MDMA; conditions: single administration MDMA 10 mg/kg, wild or mutant mice; p=0.95
Experimental: The data represents the average±the standard deviation from the average of the leptine rates of the plasma expressed in ng/mL after the administration of NaCl (0.9%) or of MDMA (10 mg/kg) in the wild (+/+) or the disabled (−/−) mice for the gene coding for the 5-HT4 receptor, aged six to 10 months on the average. **p<0.01 significant effect of the genotype after a variance analysis (ANOVA) followed by an F test of Scheffé.

Row | SMILES | ingestion of food after constraint stress preceded by injection ([1]; wild female mice) | weight losses after constraint stress vs NaCl-treated animals ([1]; wild mice) | effect of treatment alone on ingestion of food (statistical analysis of genotype, treatment, interaction) ([2]; RS 39604 0.5 mg/kg i.p. alone, wild and mutant mice, 24 h food deprivation) | taking of food vs mice treated with NaCl or other dosages ([3]; mutant animals for the 5-HT4 receptors) | taking of food vs mice treated with NaCl or other dosages ([3]; nourished wild mice ad libitum) | rates of leptine in plasma [4] | diminution of ingestion of food vs NaCl-treated mice of same genotype ([2]; mice lacking the 5-HT4 receptor (−/−), 30 min after administration) | diminution of ingestion of food vs NaCl-treated mice of same genotype ([2]; mice lacking the 5-HT4 receptor (−/−), 1 h after administration) | effect on ingestion of food vs NaCl-treated mice of same genotype ([2]; mice lacking the 5-HT4 receptor (−/−)) | diminution of ingestion of food vs NaCl-treated mice of same genotype ([2]; wild mice (+/+), 30 min after administration, 24 h food deprivation) | diminution of ingestion of food vs NaCl-treated mice of same genotype ([2]; wild mice (+/+), 1 h after administration, 24 h food deprivation) | effect on ingestion of food vs NaCl-treated mice of same genotype ([2]; wild mice (+/+), 24 h food deprivation)
1 | COc1cc(COc2cc(N)c(Cl)cc2C(=O)CCC2CCN(CCNS(C)(=O)=O)CC2)cc(OC)c1 [RS 39604] | not modified | reduced the weight losses | does not reveal significant | without effect | increase of the taking of food |  |  |  |  |  |  | 
2 | CNC(C)Cc1ccc2c(c1)OCO2 (stereo not drawn) [MDMA, 3,4-N-methylene dioxymethamphetamine] |  |  |  |  |  | does not modify the rates of leptine | −69.07% | −68.49% | no longer observed | −95.38% | −88.56% | absent
